Values joined by “and” are separate entries in the source; they are usually repeats but may differ in a detail not shown here. Equal entries are not always repeated.
Biological target: SARS-CoV-2_WT Mpro (Severe acute respiratory syndrome coronavirus 2, UniProt P0DTD1)
Assay: biochemical
Settings: 25 nM SARS-2 Mpro, 25 μM substrate, 30 min pre-incubation

Row | Compound | IC50
1 | Oc1ccc(-c2c3oc4cc(O)ccc4c3nc3c2c(O)nn3C2CCCCCC2)cc1 [ID18, Oc1ccc(-c2c3oc4cc(O)ccc4c3nc3c2c(O)nn3C2CCCCCC2)cc1] | < 100 µM
2 | Oc1ccc2c(c1)oc1c(-c3ccc(O)c(O)c3)c3c(O)nn(C4CCCCC4)c3nc12 [ID11, Oc1ccc2c(c1)oc1c(-c3ccc(O)c(O)c3)c3c(O)nn(C4CCCCC4)c3nc12] | < 100 µM and 54.4 µM
3 | COc1cc(-c2c3oc4cc(O)ccc4c3nc3c2c(O)nn3C2CCCCC2)cc(O)c1O [ID32, COc1cc(-c2c3oc4cc(O)ccc4c3nc3c2c(O)nn3C2CCCCC2)cc(O)c1O] | < 100 µM
4 | Oc1ccc(-c2c3oc4c(O)c(O)ccc4c3nc3c2c(O)nn3C2CCCCCC2)cc1O [ID14, Oc1ccc(-c2c3oc4c(O)c(O)ccc4c3nc3c2c(O)nn3C2CCCCCC2)cc1O] | < 100 µM
5 | COc1cc(-c2c3oc4cc(O)ccc4c3nc3c2c(O)nn3C2CCCCCCC2)cc(O)c1O [ID41, COc1cc(-c2c3oc4cc(O)ccc4c3nc3c2c(O)nn3C2CCCCCCC2)cc(O)c1O] | < 100 µM
6 | Cc1c(O)ccc2c1oc1c(-c3ccc(O)c(O)c3)c3c(O)nn(C4CCCCC4)c3nc12 [ID20, Cc1c(O)ccc2c1oc1c(-c3ccc(O)c(O)c3)c3c(O)nn(C4CCCCC4)c3nc12] | < 100 µM
7 | Oc1ccc(-c2c3oc4c(O)c(O)ccc4c3nc3c2c(O)nn3C2CCCCC2)cc1Cl [ID35, Oc1ccc(-c2c3oc4c(O)c(O)ccc4c3nc3c2c(O)nn3C2CCCCC2)cc1Cl] | < 100 µM and 59.4 µM

From article PMC11662536, “Targeting SARS-CoV-2 main protease: a comprehensive approach using advanced virtual screening, molecular dynamics, and in vitro validation” (Virology Journal, 2024)
